The source of these data is ChEMBL document CHEMBL1122672, “Substituent branching in phenethylamine-type hallucinogens: a comparison of 1-[2,5-dimethoxy-4-(2-butyl)phenyl]-2-aminopropane and 1-[2,5-dimethoxy-4-(2-methylpropyl)phenyl]-2-aminopropane” (1984).

The species named for assay [1] is Rattus norvegicus. Put plainly: Compound was evaluated for the drug discrimination assay and the ED50 (potency) was determined in rats. The format is functional.
The species named for assay [2] is Rattus norvegicus. Put plainly: Compound was evaluated for the drug discrimination assay and the highest percent of LSD correct responses were determined in rats. The format is functional.

Usually ED50 stands for the dose at which the effect has come halfway, by size or by number of responders. A higher ED50 goes with a need for a large dose.

The molecule `CCN(CC)C(=O)[C@@H]1C=C2c3cccc4[nH]cc(c34)C[C@H]2N(C)C1` [LYSERGIDE] registered an ED50 in assay [1] of 0.0077 mg/kg. In assay [2], this molecule had an LSD of 100%.
As for `COc1cc(CC(C)N)c(OC)cc1CC(C)C.Cl` (stereo not drawn), the 50% effective dose (ED50) in assay [1] came out at 0.536 mg/kg. The LSD in assay [2] is on record as 95%.
Taken in the same sequence, the figures for `CCC(C)c1cc(OC)c(CC(C)N)cc1OC.Cl` (stereo not drawn) were 1.8 mg/kg and 70%.
With `COc1cc(CC(C)N)c(OC)cc1C` (stereo not drawn) [DOM], the ED50 in assay [1] stood at 0.148 mg/kg. The LSD in assay [2] came to 99%.
